According to patent US20250059198A1, “BRM DEGRADING COMPOUNDS AND ASSOCIATED METHODS OF USE” (Arvinas Operations, Inc., priority 2021, published 2025):

Molecular target: T1, BRM (Homo sapiens, UniProt P51531)
T1 construct: Western Blot Screen of BRM Degradation in SW1573 Cells; endogenous in cells; host or cells: SW1573 cells
Assay: BRM degradation (Dmax and DC50) in SW1573 cells, Western blot screen / In-Cell Western screen
Assay type: cell-based
Conditions: overnight (18-20 hours) treatment; for Dmax: read-out: Dmax (%)** (% degraded)
Outline: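 Dmax and DC50 were derived from BRM levels normalised to an alpha-tubulin control, measured by chemiluminescent Western blotting of lysates or by PFA-fixed In-Cell Western on LI-COR Odyssey. SW1573 cells received compound overnight (18–20 h, 0.1% DMSO final).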

T1 sequence (P51531 whole entry): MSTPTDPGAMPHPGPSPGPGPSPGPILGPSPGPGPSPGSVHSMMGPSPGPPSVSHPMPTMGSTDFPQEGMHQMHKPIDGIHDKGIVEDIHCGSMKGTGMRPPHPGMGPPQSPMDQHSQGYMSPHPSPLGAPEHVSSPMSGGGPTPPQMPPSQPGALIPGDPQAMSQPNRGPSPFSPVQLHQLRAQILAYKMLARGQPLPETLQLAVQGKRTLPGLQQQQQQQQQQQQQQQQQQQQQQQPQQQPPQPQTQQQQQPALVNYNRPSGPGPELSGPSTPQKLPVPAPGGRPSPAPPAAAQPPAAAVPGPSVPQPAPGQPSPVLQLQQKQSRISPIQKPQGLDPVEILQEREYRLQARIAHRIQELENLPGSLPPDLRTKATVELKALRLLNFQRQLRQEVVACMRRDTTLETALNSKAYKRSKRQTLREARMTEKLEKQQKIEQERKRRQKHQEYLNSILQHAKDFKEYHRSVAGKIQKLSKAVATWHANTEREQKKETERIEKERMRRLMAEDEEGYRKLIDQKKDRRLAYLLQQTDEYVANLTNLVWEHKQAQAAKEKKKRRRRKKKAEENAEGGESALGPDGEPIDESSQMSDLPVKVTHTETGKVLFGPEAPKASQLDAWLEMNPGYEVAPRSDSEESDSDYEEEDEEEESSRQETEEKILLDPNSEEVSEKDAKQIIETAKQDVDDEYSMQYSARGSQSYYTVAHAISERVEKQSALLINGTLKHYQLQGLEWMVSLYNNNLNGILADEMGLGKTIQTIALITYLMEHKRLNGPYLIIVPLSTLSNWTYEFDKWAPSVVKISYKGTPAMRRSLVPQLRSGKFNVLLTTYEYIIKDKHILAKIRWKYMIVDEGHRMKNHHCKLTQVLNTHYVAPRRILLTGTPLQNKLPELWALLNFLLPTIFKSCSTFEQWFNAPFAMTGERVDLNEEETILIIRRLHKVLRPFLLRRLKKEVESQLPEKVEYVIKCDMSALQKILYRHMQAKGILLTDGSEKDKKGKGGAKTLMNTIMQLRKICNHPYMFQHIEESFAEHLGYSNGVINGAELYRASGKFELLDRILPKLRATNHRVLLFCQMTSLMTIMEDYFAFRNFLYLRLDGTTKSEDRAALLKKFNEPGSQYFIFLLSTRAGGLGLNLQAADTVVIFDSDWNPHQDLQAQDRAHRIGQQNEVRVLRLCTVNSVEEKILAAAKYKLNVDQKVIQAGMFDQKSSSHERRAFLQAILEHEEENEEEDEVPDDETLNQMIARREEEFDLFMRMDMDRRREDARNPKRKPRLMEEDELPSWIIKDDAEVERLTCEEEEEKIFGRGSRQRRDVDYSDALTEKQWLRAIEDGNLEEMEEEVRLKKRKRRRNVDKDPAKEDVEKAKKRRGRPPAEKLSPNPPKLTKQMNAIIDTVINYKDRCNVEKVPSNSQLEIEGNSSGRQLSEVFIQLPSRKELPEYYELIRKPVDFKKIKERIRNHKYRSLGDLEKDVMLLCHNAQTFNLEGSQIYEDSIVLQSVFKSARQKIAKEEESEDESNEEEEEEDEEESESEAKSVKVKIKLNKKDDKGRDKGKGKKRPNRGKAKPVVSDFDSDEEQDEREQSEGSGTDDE

Compound: Cc1ncsc1-c1ccc([C@H](C)NC(=O)[C@@H]2C[C@@H](O)CN2C(=O)[C@@H](c2cc(N3CCC(CN4CCC(CN5CCC6(CC5)CC(N5CCC(C(C)n7cc(-c8cc(-c9ccccc9O)nnc8N)cn7)CC5)C6)CC4)CC3)no2)C(C)C)cc1 (stereo partly drawn) [Compound 31, (2S,4R)-1-[(2R)-2-[3-(4-{[4-({2-[4-(1-{4-[3-amino-6-(2-hydroxyphenyl)pyridazin-4-yl]-1H-pyrazol-1-yl}ethyl)piperidin-1-yl]-7-azaspiro[3.5]nonan-7-yl}methyl)piperidin-1-yl]methyl}piperidin-1-yl)-1,2-oxazol-5-yl]-3-methylbutanoyl]-4-hydroxy-N-[(1S)-1-[4-(4-methyl-1,3-thiazol-5-yl)phenyl]ethyl]pyrrolidine-2-carboxamide]
- DC50: < 2.5 nM
- Dmax: > 75%

Compound: Cc1ncsc1-c1ccc([C@H](C)NC(=O)[C@@H]2C[C@@H](O)CN2C(=O)[C@@H](c2cc(N3CCC(CN4CCC5(CC4)CC(n4cc(C#Cc6cc(-c7ccccc7O)nnc6N)cn4)C5)CC3)no2)C(C)C)cc1 [Compound 63, (2S,4R)-1-[(2R)-2-[3-(4-{[2-(4-{2-[3-amino-6-(2-hydroxyphenyl)pyridazin-4-yl]ethynyl}-1H-pyrazol-1-yl)-7-azaspiro[3.5]nonan-7-yl]methyl}piperidin-1-yl)-1,2-oxazol-5-yl]-3-methylbutanoyl]-4-hydroxy-N-[(1S)-1-[4-(4-methyl-1,3-thiazol-5-yl)phenyl]ethyl]pyrrolidine-2-carboxamide]
- DC50: < 2.5 nM
- Dmax: > 75%

Compound: Cc1ncsc1-c1ccc([C@H](C)NC(=O)[C@@H]2C[C@@H](O)CN2C(=O)[C@@H](c2cc(N3CCC(CN4CCC(O[C@H]5C[C@H](N6CCO[C@H](CN7C8CCC7CN(c7cc(-c9ccccc9O)nnc7N)C8)C6)C5)CC4)CC3)no2)C(C)C)cc1 [Compound 23, (2S,4R)-4-hydroxy-N-[(1S)-1-[4-(4-methyl-1,3-thiazol-5-yl)phenyl]ethyl]-1-[(2R)-3-methyl-2-{3-[4-({4-[(1r,3r)-3-[(2S)-2-({3-[3-amino-6-(2-hydroxyphenyl)pyridazin-4-yl]-3,8-diazabicyclo[3.2.1]octan-8-yl}methyl)morpholin-4-yl]cyclobutoxy]piperidin-1-yl}methyl)piperidin-1-yl]-1,2-oxazol-5-yl}butanoyl]pyrrolidine-2-carboxamide]
- DC50: < 2.5 nM
- Dmax: > 75%

Compound: Cc1ncsc1-c1ccc([C@H](C)NC(=O)C2C[C@@H](O)CN2C(=O)[C@@H](c2cc(N3CCC(CN4CC[C@@H](Oc5cc(N6C7CCC6CN(c6cc(-c8ccccc8O)nnc6N)C7)ccn5)C(F)(F)C4)CC3)no2)C(C)C)cc1 (stereo in doubt) [Compound 53, (2S,4R)-1-[(2R)-2-[3-(4-{[(4R)-4-[(4-{3-[3-amino-6-(2-hydroxyphenyl)pyridazin-4-yl]-3,8-diazabicyclo[3.2.1]octan-8-yl}pyridin-2-yl)oxy]-3,3-difluoropiperidin-1-yl]methyl}piperidin-1-yl)-1,2-oxazol-5-yl]-3-methylbutanoyl]-4-hydroxy-N-[(1S)-1-[4-(4-methyl-1,3-thiazol-5-yl)phenyl]ethyl]pyrrolidine-2-carboxamide]
- DC50: 2.5 to 10 nM
- Dmax: > 75%

Compound: Cc1ncsc1-c1ccc([C@H](C)NC(=O)[C@@H]2C[C@@H](O)CN2C(=O)[C@@H](c2cc(N3CCC(CN4CCC(O[C@H]5C[C@H](N6CCC7(CC6)CC(N6C8CCC6CN(c6cc(-c9ccccc9O)nnc6N)C8)C7)C5)CC4)CC3)no2)C(C)C)cc1 [Compound 44, (2S,4R)-4-hydroxy-N-[(1S)-1-[4-(4-methyl-1,3-thiazol-5-yl)phenyl]ethyl]-1-[(2R)-3-methyl-2-{3-[4-({4-[(1r,3r)-3-(2-{3-[3-amino-6-(2-hydroxyphenyl)pyridazin-4-yl]-3,8-diazabicyclo[3.2.1]octan-8-yl}-7-azaspiro[3.5]nonan-7-yl)cyclobutoxy]piperidin-1-yl}methyl)piperidin-1-yl]-1,2-oxazol-5-yl}butanoyl]pyrrolidine-2-carboxamide]
- DC50: < 2.5 nM
- Dmax: > 75%

Compound: Cc1ncsc1-c1ccc([C@H](C)NC(=O)[C@@H]2C[C@@H](O)CN2C(=O)[C@@H](c2cc(OCCN3CCC(O[C@H]4C[C@H](OC(=O)N5CCN(c6cc(-c7ccccc7O)nnc6N)CC5)C4)CC3)no2)C(C)C)cc1 [Compound 81, (1r,3r)-3-({1-[2-({5-[(2R)-1-[(2S,4R)-4-hydroxy-2-{[(1S)-1-[4-(4-methyl-1,3-thiazol-5-yl)phenyl]ethyl]carbamoyl}pyrrolidin-1-yl]-3-methyl-1-oxobutan-2-yl]-1,2-oxazol-3-yl}oxy)ethyl]piperidin-4-yl}oxy)cyclobutyl 4-[3-amino-6-(2-hydroxyphenyl)pyridazin-4-yl]piperazine-1-carboxylate]
- DC50: < 2.5 nM
- Dmax: > 75%

Compound: Cc1ncsc1-c1ccc([C@H](C)NC(=O)C2C[C@@H](O)CN2C(=O)[C@@H](c2cc(N3CCC(CN4CC[C@H](Oc5cc(N6C7CCC6CN(c6cc(-c8ccccc8O)nnc6N)C7)ccn5)C(F)(F)C4)CC3)no2)C(C)C)cc1 (stereo in doubt) [Compound 54, (2S,4R)-1-[(2R)-2-[3-(4-{[(4S)-4-[(4-{3-[3-amino-6-(2-hydroxyphenyl)pyridazin-4-yl]-3,8-diazabicyclo[3.2.1]octan-8-yl}pyridin-2-yl)oxy]-3,3-difluoropiperidin-1-yl]methyl}piperidin-1-yl)-1,2-oxazol-5-yl]-3-methylbutanoyl]-4-hydroxy-N-[(1S)-1-[4-(4-methyl-1,3-thiazol-5-yl)phenyl]ethyl]pyrrolidine-2-carboxamide]
- DC50: 2.5 to 10 nM
- Dmax: > 75%

Compound: Cc1ncsc1-c1ccc([C@H](C)NC(=O)[C@@H]2C[C@@H](O)CN2C(=O)[C@@H](c2cc(N3CCC(CN4CCC5(CC4)CC(Oc4cc(N6C7CCC6CN(c6cc(-c8ccccc8O)nnc6N)C7)ccn4)C5)CC3)no2)C(C)C)cc1 [Compound 29, (2S,4R)-1-[(2R)-2-{3-[4-({2-[(4-{3-[3-amino-6-(2-hydroxyphenyl)pyridazin-4-yl]-3,8-diazabicyclo[3.2.1]octan-8-yl}pyridin-2-yl)oxy]-7-azaspiro[3.5]nonan-7-yl}methyl)piperidin-1-yl]-1,2-oxazol-5-yl}-3-methylbutanoyl]-4-hydroxy-N-[(1S)-1-[4-(4-methyl-1,3-thiazol-5-yl)phenyl]ethyl]pyrrolidine-2-carboxamide]
- DC50: < 2.5 nM
- Dmax: > 75%

Compound: CC(C)[C@H](C(=O)N1C[C@H](O)C[C@H]1C(=O)N[C@@H](C)c1ccc(C#N)cc1)c1cc(N2CCN(C(=O)N3CCC(O[C@H]4C[C@H](Oc5cc(N6C7CCC6CN(c6cc(-c8ccccc8O)nnc6N)C7)ccn5)C4)CC3)CC2)no1 [Compound 139, (2S,4R)-N-[(1S)-1-(4-cyanophenyl)ethyl]-4-hydroxy-1-[(2S)-3-methyl-2-[3-(4-{4-[(1r,3r)-3-[(4-{3-[3-amino-6-(2-hydroxyphenyl)pyridazin-4-yl]-3,8-diazabicyclo[3.2.1]octan-8-yl}pyridin-2-yl)oxy]cyclobutoxy]piperidine-1-carbonyl}piperazin-1-yl)-1,2-oxazol-5-yl]butanoyl]pyrrolidine-2-carboxamide]
- DC50: ≥ 30 nM

Compound: Cc1ncsc1-c1ccc([C@H](C)NC(=O)[C@@H]2C[C@@H](O)CN2C(=O)[C@@H](c2cc(N3CCN(C(=O)N4CCC(O[C@H]5C[C@H](Oc6cc(N7C8CCC7CN(c7cc(-c9ccccc9O)nnc7N)C8)ccn6)C5)CC4)CC3)no2)C(C)C)cc1 [Compound 123, (2S,4R)-4-hydroxy-N-[(1S)-1-[4-(4-methyl-1,3-thiazol-5-yl)phenyl]ethyl]-1-[(2S)-3-methyl-2-[3-(4-{4-[(1r,3r)-3-[(4-{3-[3-amino-6-(2-hydroxyphenyl)pyridazin-4-yl]-3,8-diazabicyclo[3.2.1]octan-8-yl}pyridin-2-yl)oxy]cyclobutoxy]piperidine-1-carbonyl}piperazin-1-yl)-1,2-oxazol-5-yl]butanoyl]pyrrolidine-2-carboxamide]
- DC50: < 2.5 nM
- Dmax: > 75%

Compound: CC(C)[C@@H](C(=O)N1C[C@H](O)C[C@H]1C(=O)N[C@@H](C)c1ccc(C#N)cc1)c1cc(N2CCC(CN3CC[C@@H](Oc4cc(N5C6CCC5CN(c5cc(-c7ccccc7O)nnc5N)C6)ccn4)[C@@H](F)C3)CC2)no1 [Compound 157, (2S,4R)-1-[(2R)-2-[3-(4-{[(3S,4R)-4-[(4-{3-[3-amino-6-(2-hydroxyphenyl)pyridazin-4-yl]-3,8-diazabicyclo[3.2.1]octan-8-yl}pyridin-2-yl)oxy]-3-fluoropiperidin-1-yl]methyl}piperidin-1-yl)-1,2-oxazol-5-yl]-3-methylbutanoyl]-N-[(1S)-1-(4-cyanophenyl)ethyl]-4-hydroxypyrrolidine-2-carboxamide]
- DC50: < 2.5 nM
- Dmax: > 75%

Compound: Cc1ncsc1-c1ccc([C@H](C)NC(=O)[C@@H]2C[C@@H](O)CN2C(=O)[C@H](c2cc(N3CCN(C(=O)[C@H]4C[C@H](Oc5cc(N6C7CCC6CN(c6cc(-c8ccccc8O)nnc6N)C7)ccn5)C4)CC3)no2)C(C)C)cc1 [Compound 118, (2S,4R)-4-hydroxy-N-[(1S)-1-[4-(4-methyl-1,3-thiazol-5-yl)phenyl]ethyl]-1-[(2S)-3-methyl-2-(3-{4-[(1r,3r)-3-[(4-{3-[3-amino-6-(2-hydroxyphenyl)pyridazin-4-yl]-3,8-diazabicyclo[3.2.1]octan-8-yl}pyridin-2-yl)oxy]cyclobutanecarbonyl]piperazin-1-yl}-1,2-oxazol-5-yl)butanoyl]pyrrolidine-2-carboxamide]
- DC50: < 2.5 nM
- Dmax: > 75%

Compound: Cc1ncsc1-c1ccc([C@H](C)NC(=O)[C@@H]2C[C@@H](O)CN2C(=O)[C@@H](c2cc(N3CCC(CN4CCC(O[C@H]5C[C@H](N6CCC(C(C)c7cn(-c8cc(-c9ccccc9O)nnc8N)cn7)CC6)C5)CC4)CC3)no2)C(C)C)cc1 (stereo partly drawn) [Compound 85, (2S,4R)-4-hydroxy-N-[(1S)-1-[4-(4-methyl-1,3-thiazol-5-yl)phenyl]ethyl]-1-[(2R)-3-methyl-2-{3-[4-({4-[(1r,3r)-3-[4-(1-{1-[3-amino-6-(2-hydroxyphenyl)pyridazin-4-yl]-1H-imidazol-4-yl}ethyl)piperidin-1-yl]cyclobutoxy]piperidin-1-yl}methyl)piperidin-1-yl]-1,2-oxazol-5-yl}butanoyl]pyrrolidine-2-carboxamide]
- DC50: ≥ 30 nM
